Values quoted from earlier work as cited in patent US20060165789A1, “Lercanidipine modified release compositions” (Forest Laboratories, Inc., priority 2004, published 2006).

Columns and labels:
[1] = for time of maximum concentration (Tmax): form (I) and form (II) compared
[2] = biological target: cytochrome P450 3A4 isoenzyme (Homo sapiens, UniProt P08684); conditions: extensive presystemic first pass elimination in patients
[3] = tested on: Caco2 cell; conditions: Caco2 cell apparatus
[4] = pH 5
[5] = tested on: dihyropyridine subunit of the L-type calcium channel

Chain of cytochrome P450 3A4 isoenzyme (P08684 whole entry): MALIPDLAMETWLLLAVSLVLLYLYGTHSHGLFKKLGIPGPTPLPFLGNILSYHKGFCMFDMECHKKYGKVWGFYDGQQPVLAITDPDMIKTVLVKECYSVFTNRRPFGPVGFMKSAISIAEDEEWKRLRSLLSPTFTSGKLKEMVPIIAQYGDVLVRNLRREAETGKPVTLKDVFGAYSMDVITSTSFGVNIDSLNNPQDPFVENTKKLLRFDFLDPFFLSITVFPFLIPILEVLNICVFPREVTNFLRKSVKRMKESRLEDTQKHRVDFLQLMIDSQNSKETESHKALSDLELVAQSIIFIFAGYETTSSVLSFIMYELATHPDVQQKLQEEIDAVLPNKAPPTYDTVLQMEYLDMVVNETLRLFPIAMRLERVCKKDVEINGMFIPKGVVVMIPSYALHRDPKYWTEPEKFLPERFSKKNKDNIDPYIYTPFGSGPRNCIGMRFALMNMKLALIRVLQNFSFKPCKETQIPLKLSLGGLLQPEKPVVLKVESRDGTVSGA

time of maximum concentration (Tmax) [1] | bioavailability ([1]; form (II) compared to Form (I)) | systemic exposure (AUCo-t) ([1]; form (II) compared to Form (I)) | increase of amount of lercanidipine absorbed with food (in vivo) | time of peak plasma level following dosage (oral administration) | Papp [3] | solubility in acidic medium [4] | SMILES | cytochrome P450 3A4 substrate [2] | affinity for L-type calcium channel [5]
shorter time to maximum concentration |  |  |  |  |  |  | COC(=O)C1=C(C)NC(C)=C(C(=O)OC(C)(C)CN(C)CCC(c2ccccc2)c2ccccc2)C1c1cccc([N+](=O)[O-])c1 (stereo not shown) [form (I)] |  | 
delayed time of maximum concentration | higher bioavailability | slightly higher systemic exposure |  |  |  |  | COC(=O)C1=C(C)NC(C)=C(C(=O)OC(C)(C)CN(C)CCC(c2ccccc2)c2ccccc2)C1c1cccc([N+](=O)[O-])c1 (stereo not shown) [form (II)] |  | 
 |  |  | between three and four times | 1 to 3 h | 0.05 ×10⁻⁶ cm/s | less than 20 μg/ml | COC(=O)C1=C(C)NC(C)=C(C(=O)OC(C)(C)CN(C)CCC(c2ccccc2)c2ccccc2)C1c1cccc([N+](=O)[O-])c1.Cl (stereo not shown) [Lercanidipine, methyl 1,1,N-trimethyl-N-(3,3-diphenylpropyl)-2-aminoethyl 1,4-dihydro-2,6-dimethyl-4-(3-nitrophenyl)pyridine-3,5-dicarboxylate] | substrate for cytochrome P450 3A4 isoenzyme | high affinity
